According to patent publication US20060069132A1, “Azolecarboxamide herbicides” (priority 2004, published 2006):

What was measured:
giant foxtail = test: Test A pre-/postemergence herbicide test; type: in vivo, Setaria faberi
In short: (§1)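 Seeds sown in sandy loam received a preemergence directed soil spray of compound in non-phytotoxic solvent with surfactant; postemergence plants (2–10 cm, one- to two-leaf stage) were sprayed to runoff at the same time. After ~10 days in greenhouse, injury was rated visually versus untreated controls (0 = no effect, 100 = complete control).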

rice = test: Test C flooded paddy test; type: in vivo, Oryza sativa
In short: (§2)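 Postemergence sprays applied to plants 2 to 18 cm tall (1- to 4-leaf stage); paddy species grown to 2-leaf stage under flooding. After 12 to 14 days in greenhouse, visual rating versus untreated controls on 0–100 scale (0 no effect, 100 complete control).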

large crabgrass [1] = test: Test A pre-/postemergence herbicide test; type: in vivo, Digitaria sanguinalis
In short: as §1

ducksalad = test: Test C flooded paddy test; type: in vivo, Heteranthera limosa
kochia = test: Test C pre-/postemergence herbicide test; type: in vivo, Kochia scoparia
In short: (§3)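 Seeds were planted and sprayed preemergence with test chemicals in a non-phytotoxic solvent mixture containing surfactant; postemergence treatments went onto plants 2 to 18 cm tall (1- to 4-leaf stage). After 12 to 14 days in a greenhouse, injury was rated visually against untreated controls on a 0–100 scale.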

velvetleaf = test: Test A pre-/postemergence herbicide test; type: in vivo, Abutilon theophrasti
In short: as §1

johnsongrass = test: Test C pre-/postemergence herbicide test; type: in vivo, Sorghum halepense
In short: as §3

corn = test: Test C pre-/postemergence herbicide test; type: in vivo, Zea mays
In short: as §3

blackgrass = test: Test C postemergence herbicide test; type: in vivo, Alopecurus myosuroides
In short: as §2

large crabgrass [2] = test: Test C pre-/postemergence herbicide test; type: in vivo, Digitaria sanguinalis
In short: as §3

lambsquarters = test: Test C pre-/postemergence herbicide test; type: in vivo, Chenopodium album
In short: as §3

woolly cupgrass = test: Test C pre-/postemergence herbicide test; type: in vivo, Eriochloa villosa
In short: as §3

barnyardgrass = test: Test A pre-/postemergence herbicide test; type: in vivo, Echinochloa crus-galli
In short: as §1

[3] = Postemergence, 500 g ai/ha, 0 to 100 scale, 0 no effect, 100 complete control
[4] = Postemergence, 2000 g ai/ha, 0 to 100 scale, 0 no effect, 100 complete control
[5] = Preemergence, 2000 g ai/ha, visual rating, 0 to 100 scale (0 no effect, 100 complete control)
[6] = preemergence, 500 g ai/ha, visual injury, 0 to 100 scale (0 no effect, 100 complete control)
[7] = 125 g ai/ha, scale 0 to 100 (0 no effect, 100 complete control)
[8] = 250 g ai/ha, scale of 0 to 100, 0 is no effect, 100 is complete control
[9] = 500 g ai/ha, visual rating after 12 to 14 days, scale 0 to 100 (0 no effect, 100 complete control)
[10] = Postemergence, 500 g ai/ha, scale 0 to 100
[11] = Postemergence, 250 g ai/ha, scale 0 to 100, 0 no effect, 100 complete control
[12] = postemergence, 125 g ai/ha, scale 0 to 100
[13] = postemergence, 62 g ai/ha, scale 0 to 100

CCn1nc(C(C)(C)C)cc1C(=O)Nc1cccc(OC(F)(F)F)c1 [Compound 272]
Foxtail, Giant plant response rating (giant foxtail; [3]): 45 | Plant response rating, Foxtail, Giant (giant foxtail; [4]): 95 | Foxtail, Giant plant response rating (giant foxtail; [5]): 100 | Foxtail, Giant plant response rating (giant foxtail; [6]): 90 | Rice plant response rating (rice; 62 g ai/ha, scale 0 to 100): 0 | Rice plant response rating (rice; [7]): 10 | Rice plant response rating (rice; [8]): 15 | Plant response rating, Rice (rice; [9]): 20 | Crabgrass, Large plant response rating (large crabgrass [1]; [3]): 55 | Plant response rating, Crabgrass, Large (large crabgrass [1]; [4]): 90 | Crabgrass, Large plant response rating (large crabgrass [1]; [5]): 100 | Crabgrass, Large plant response rating (large crabgrass [1]; [6]): 85 | Ducksalad plant response rating (ducksalad; 62 g ai/ha, scale 0 to 100): 10 | Ducksalad plant response rating (ducksalad; [7]): 20 | Ducksalad plant response rating (ducksalad; [8]): 40 | Plant response rating, Ducksalad (ducksalad; [9]): 85 | Kochia plant response rating (kochia; [10]): 100 | Plant response rating, Kochia (kochia; [11]): 100 | Plant response rating, Kochia (kochia; [12]): 100 | Plant response rating, Kochia (kochia; [13]): 95 | Velvetleaf plant response rating (velvetleaf; [3]): 100 | Plant response rating, Velvetleaf (velvetleaf; [4]): 100 | Velvetleaf plant response rating (velvetleaf; [5]): 60 | Velvetleaf plant response rating (velvetleaf; [6]): 15 | Johnsongrass plant response rating (johnsongrass; [10]): 55 | Plant response rating, Johnsongrass (johnsongrass; [11]): 45 | Plant response rating, Johnsongrass (johnsongrass; [12]): 40 | Plant response rating, Johnsongrass (johnsongrass; [13]): 10 | Corn plant response rating (corn; [10]): 20 | Plant response rating, Corn (corn; [11]): 15 | Plant response rating, Corn (corn; [12]): 15 | Plant response rating, Corn (corn; [13]): 10 | Blackgrass plant response rating (blackgrass; [10]): 65 | Plant response rating, Blackgrass (blackgrass; [11]): 45 | Plant response rating, Blackgrass (blackgrass; [12]): 45 | Plant response rating, Blackgrass (blackgrass; [13]): 35 | Crabgrass, Large plant response rating (large crabgrass [2]; [10]): 95 | Plant response rating, Crabgrass, Large (large crabgrass [2]; [11]): 80 | Plant response rating, Crabgrass, Large (large crabgrass [2]; [12]): 80 | Plant response rating, Crabgrass, Large (large crabgrass [2]; [13]): 40 | Lambsquarters plant response rating (lambsquarters; [10]): 100 | Plant response rating, Lambsquarters (lambsquarters; [11]): 100 | Plant response rating, Lambsquarters (lambsquarters; [12]): 100 | Plant response rating, Lambsquarters (lambsquarters; [13]): 100 | Cupgrass, Woolly plant response rating (woolly cupgrass; [10]): 65 | Plant response rating, Cupgrass, Woolly (woolly cupgrass; [11]): 60 | Plant response rating, Cupgrass, Woolly (woolly cupgrass; [12]): 40 | Plant response rating, Cupgrass, Woolly (woolly cupgrass; [13]): 25 | Barnyardgrass plant response rating (barnyardgrass; [3]): 55 | Plant response rating, Barnyardgrass (barnyardgrass; [4]): 90 | Barnyardgrass plant response rating (barnyardgrass; [5]): 100 | Barnyardgrass plant response rating (barnyardgrass; [6]): 70
